For the experiment, the target named is T1, PD-1/PD-L1 (Homo sapiens, UniProt Q9NZQ7).
T1 construct: made in house; host or cells: HEK293T
As to the kind of experiment: PD-1/PD-L1 Homogenous Time-Resolved Fluorescence (HTRF) binding assay. The note with it: PD-L1-His 10 nM, PD-1-Ig 20 nM; value given as range class; read-out: Range or IC50. Put shortly:
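Read-out is time-resolved FRET between europium cryptate-labelled anti-Ig (1 nM final) and APC-labelled anti-His (20 nM final), both dispensed onto the binding mix. Assay buffer: dPBS containing 0.1% bovine serum albumin and 0.05% Tween-20.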

T1 sequence (Q9NZQ7 with tags, fused parts or gaps): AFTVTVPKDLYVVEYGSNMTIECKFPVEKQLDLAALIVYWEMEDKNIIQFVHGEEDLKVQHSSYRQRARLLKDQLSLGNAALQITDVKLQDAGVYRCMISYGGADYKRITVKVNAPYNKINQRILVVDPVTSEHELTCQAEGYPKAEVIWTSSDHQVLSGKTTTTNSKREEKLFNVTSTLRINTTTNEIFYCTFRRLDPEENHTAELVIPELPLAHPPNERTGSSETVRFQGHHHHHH

Usually IC50 stands for the midpoint of a concentration-inhibition curve. Consider `COC(=O)C1(O)CCN(CCCOc2cccc(-c3cccc(COc4cc(OCc5cncc(S(C)(=O)=O)c5)c(CN[C@@](C)(CO)C(=O)O)cc4Cl)c3C)c2C)CC1` [Example 1039, (S)-2-((5-chloro-4-((3′-(3-(4-hydroxy-4-(methoxycarbonyl)piperidin-1-yl)propoxy)-2,2′-dimethyl-[1,1′-biphenyl]-3-yl)methoxy)-2-((5-(methylsulfonyl)pyridin-3-yl)methoxy)benzyl)amino)-3-hydroxy-2-methylpropanoic Acid], for which the IC50 is 0.21 to 10 nM.

In the case of `Cc1c(COc2cc(OCc3cncc(S(C)(=O)=O)c3)c(CN[C@H](CO)C(=O)O)cc2Cl)cccc1-c1cccc(OCCCN2CCC(O)(C(=O)O)CC2)c1C` [Example 1040, (R)-1-(3-((3′-((4-(((1-carboxy-2-hydroxyethyl)amino)methyl)-2-chloro-5-((5-(methylsulfonyl)pyridin-3-yl)methoxy)phenoxy)methyl)-2,2′-dimethyl-[1,1′-biphenyl]-3-yl)oxy)propyl)-4-hydroxypiperidine-4-carboxylic Acid], the IC50 lay in the range of 0.21 to 10 nM.

Turning to `Cc1c(COc2cc(OCc3cncc(S(C)(=O)=O)c3)c(CN[C@@](C)(CO)C(=O)O)cc2Cl)cccc1-c1cccc(OCCCN2CCC(O)(C(=O)O)CC2)c1C` [Example 1041, (S)-1-(3-((3′-((4-(((2-carboxy-1-hydroxypropan-2-yl)amino)methyl)-2-chloro-5-((5-(methylsulfonyl)pyridin-3-yl)methoxy)phenoxy)methyl)-2,2′-dimethyl-[1,1′-biphenyl]-3-yl)oxy)propyl)-4-hydroxypiperidine-4-carboxylic Acid], the IC50 fell in the range of 0.21 to 10 nM.

Regarding `Cc1c(COc2cc(OCc3cncc(C#N)c3)c(CN[C@H](CO)C(=O)O)cc2Cl)cccc1-c1cccc(OC[C@@H]2CCCN3CCCC[C@H]23)c1C` [Example 1042, (R)-2-((5-chloro-2-((5-cyanopyridin-3-yl)methoxy)-4-((2,2′-dimethyl-3′-(((1R,9aR)-octahydro-1H-quinolizin-1-yl)methoxy)-[1,1′-biphenyl]-3-yl)methoxy)benzyl)amino)-3-hydroxypropanoic Acid], the half-maximal inhibitory concentration (IC50) was 0.21 to 10 nM.

With `Cc1c(COc2cc(OCc3cncc(C#N)c3)c(CN3CCCC[C@H]3C(=O)O)cc2Cl)cccc1-c1cccc(OC[C@@H]2CCCN3CCCC[C@H]23)c1C` [Example 1043, (S)-1-(5-chloro-2-((5-cyanopyridin-3-yl)methoxy)-4-((2,2′-dimethyl-3′-(((1R,9aR)-octahydro-1H-quinolizin-1-yl)methoxy)-[1,1′-biphenyl]-3-yl)methoxy)benzyl)piperidine-2-carboxylic Acid], the IC50 lay within 0.21 to 10 nM.

Consider `CCOC(=O)C1(CO)CCN(CCCOc2cccc(-c3cccc(COc4cc(OCc5cncc(S(C)(=O)=O)c5)c(CN[C@](C)(CO)C(=O)O)cc4Cl)c3C)c2C)C1` (stereo partly drawn) [Example 1044, (2R)-2-((5-chloro-4-((3′-(3-(3-(ethoxycarbonyl)-3-(hydroxymethyl)pyrrolidin-1-yl)propoxy)-2,2′-dimethyl-[1,1′-biphenyl]-3-yl)methoxy)-2-((5-(methylsulfonyl)pyridin-3-yl)methoxy)benzyl)amino)-3-hydroxy-2-methylpropanoic Acid], for which the IC50 lay in the range of 0.21 to 10 nM.

Take `CCOC(=O)C1(CO)CCN(CCCOc2cccc(-c3cccc(COc4cc(OCc5cncc(S(C)(=O)=O)c5)c(CN[C@H](CO)C(=O)O)cc4Cl)c3C)c2C)C1` (stereo partly drawn) [Example 1045, (2R)-2-((5-chloro-4-((3′-(3-(3-(ethoxycarbonyl)-3-(hydroxymethyl)pyrrolidin-1-yl)propoxy)-2,2′-dimethyl-[1,1′-biphenyl]-3-yl)methoxy)-2-((5-(methylsulfonyl)pyridin-3-yl)methoxy)benzyl)amino)-3-hydroxypropanoic Acid]: the IC50 lay within 0.21 to 10 nM.

In the case of `COC(=O)C1(O)CCN(CCCOc2cccc(-c3cccc(COc4cc(OCc5cncc(C#N)c5)c(CN[C@](C)(CO)C(=O)O)cc4Cl)c3C)c2C)C1` (stereo partly drawn) [Example 1046, (2R)-2-((5-chloro-2-((5-cyanopyridin-3-yl)methoxy)-4-((3′-(3-(3-hydroxy-3-(methoxycarbonyl)pyrrolidin-1-yl)propoxy)-2,2′-dimethyl-[1,1′-biphenyl]-3-yl)methoxy)benzyl)amino)-3-hydroxy-2-methylpropanoic Acid], the IC50 is 0.21 to 10 nM.

As for `CCOC(=O)C1(CO)CCN(CCCOc2cccc(-c3cccc(COc4cc(OCc5cncc(C#N)c5)c(CN[C@H](CO)C(=O)O)cc4Cl)c3C)c2C)C1` (stereo partly drawn) [Example 1047, (2R)-2-((5-chloro-2-((5-cyanopyridin-3-yl)methoxy)-4-((3′-(3-(3-(ethoxycarbonyl)-3-(hydroxymethyl)pyrrolidin-1-yl)propoxy)-2,2′-dimethyl-[1,1′-biphenyl]-3-yl)methoxy)benzyl)amino)-3-hydroxypropanoic Acid], the half-maximal inhibitory concentration (IC50) is 0.21 to 10 nM.

Consider `Cc1c(COc2cc(OCc3cncc(S(C)(=O)=O)c3)c(CN[C@](C)(CO)C(=O)O)cc2Cl)cccc1-c1cccc(OCCCN2CCC(CO)(C(=O)O)C2)c1C` (stereo partly drawn) [Example 1048, 1-(3-((3′-((4-((((R)-2-carboxy-1-hydroxypropan-2-yl)amino)methyl)-2-chloro-5-((5-(methylsulfonyl)pyridin-3-yl)methoxy)phenoxy)methyl)-2,2′-dimethyl-[1,1′-biphenyl]-3-yl)oxy)propyl)-3-(hydroxymethyl)pyrrolidine-3-carboxylic Acid], for which the half-inhibitory concentration (IC50) fell in the range of 0.21 to 10 nM.

For the molecule `CCOC(=O)C1(CO)CCN(CCCOc2cccc(-c3cccc(COc4cc(OCc5cncc(C#N)c5)c(CN[C@](C)(CO)C(=O)O)cc4Cl)c3C)c2C)C1` (stereo partly drawn) [Example 1049, (2R)-2-((5-chloro-2-((5-cyanopyridin-3-yl)methoxy)-4-((3′-(3-(3-(ethoxycarbonyl)-3-(hydroxymethyl)pyrrolidin-1-yl)propoxy)-2,2′-dimethyl-[1,1′-biphenyl]-3-yl)methoxy)benzyl)amino)-3-hydroxy-2-methylpropanoic Acid], the IC50 was 0.21 to 10 nM.

For the molecule `Cc1c(COc2cc(OCc3cncc(S(C)(=O)=O)c3)c(CN[C@H](CO)C(=O)O)cc2Cl)cccc1-c1cccc(OCCCN2CCC(CO)(C(=O)O)C2)c1C` (stereo partly drawn) [Example 1050, 1-(3-((3′-((4-((((R)-1-carboxy-2-hydroxyethyl)amino)methyl)-2-chloro-5-((5-(methylsulfonyl)pyridin-3-yl)methoxy)phenoxy)methyl)-2,2′-dimethyl-[1,1′-biphenyl]-3-yl)oxy)propyl)-3-(hydroxymethyl)pyrrolidine-3-carboxylic Acid], the IC50 lay in the range of 0.21 to 10 nM.

As to `Cc1c(COc2cc(OCc3cncc(C#N)c3)c(CN[C@](C)(CO)C(=O)O)cc2Cl)cccc1-c1cccc(OCCCN2CCC(CO)(C(=O)O)C2)c1C` (stereo partly shown) [Example 1051], the half-inhibitory concentration (IC50) lay in the range of 0.21 to 10 nM.

Take `Cc1c(COc2cc(OCc3cncc(C#N)c3)c(CN[C@H](CO)C(=O)O)cc2Cl)cccc1-c1cccc(OCCCN2CCC(CO)(C(=O)O)C2)c1C` (stereo partly drawn) [Example 1052, 1-(3-((3′-((4-((((R)-1-carboxy-2-hydroxyethyl)amino)methyl)-2-chloro-5-((5-cyanopyridin-3-yl)methoxy)phenoxy)methyl)-2,2′-dimethyl-[1,1′-biphenyl]-3-yl)oxy)propyl)-3-(hydroxymethyl)pyrrolidine-3-carboxylic Acid]: the half-inhibitory concentration (IC50) lay in the range of 0.21 to 10 nM.

On to `Cc1c(COc2cc(OCc3cncc(C(N)=O)c3)c(CN[C@H](CO)C(=O)O)cc2Cl)cccc1-c1cccc(OCCCN2CCC(CO)(C(=O)O)C2)c1C` (stereo partly drawn) [Example 1053, 1-(3-((3′-((5-((5-carbamoylpyridin-3-yl)methoxy)-4-((((R)-1-carboxy-2-hydroxyethyl)amino)methyl)-2-chlorophenoxy)methyl)-2,2′-dimethyl-[1,1′-biphenyl]-3-yl)oxy)propyl)-3-(hydroxymethyl)pyrrolidine-3-carboxylic Acid], for which the half-inhibitory concentration (IC50) lay in the range of 0.21 to 10 nM.

For the molecule `Cc1c(COc2cc(OCc3cncc(C#N)c3)c(CN[C@](C)(CO)C(=O)O)cc2Cl)cccc1-c1cccc(OCCCN2CCC(O)(C(=O)O)C2)c1C` (stereo partly drawn) [Example 1054, 1-(3-((3′-((4-((((R)-2-carboxy-1-hydroxypropan-2-yl)amino)methyl)-2-chloro-5-((5-cyanopyridin-3-yl)methoxy)phenoxy)methyl)-2,2′-dimethyl-[1,1′-biphenyl]-3-yl)oxy)propyl)-3-hydroxypyrrolidine-3-carboxylic Acid], the half-maximal inhibitory concentration (IC50) was 0.21 to 10 nM.

Turning to `COC(=O)C1(O)CCN(CCCOc2cccc(-c3cccc(COc4cc(OCc5cncc(S(C)(=O)=O)c5)c(CN[C@](C)(CO)C(=O)O)cc4Cl)c3C)c2C)C1` (stereo partly drawn) [Example 1055, (2R)-2-((5-chloro-4-((3′-(3-(3-hydroxy-3-(methoxycarbonyl)pyrrolidin-1-yl)propoxy)-2,2′-dimethyl-[1,1′-biphenyl]-3-yl)methoxy)-2-((5-(methylsulfonyl)pyridin-3-yl)methoxy)benzyl)amino)-3-hydroxy-2-methylpropanoic Acid], the concentration for half-maximal inhibition (IC50) fell in the range of 0.21 to 10 nM.

Take `COC(=O)C1(O)CCN(CCCOc2cccc(-c3cccc(COc4cc(OCc5cncc(S(C)(=O)=O)c5)c(CN[C@H](CO)C(=O)O)cc4Cl)c3C)c2C)C1` (stereo partly drawn) [Example 1056, (2R)-2-((5-chloro-4-((3′-(3-(3-hydroxy-3-(methoxycarbonyl)pyrrolidin-1-yl)propoxy)-2,2′-dimethyl-[1,1′-biphenyl]-3-yl)methoxy)-2-((5-(methylsulfonyl)pyridin-3-yl)methoxy)benzyl)amino)-3-hydroxypropanoic Acid]: the IC50 is 0.21 to 10 nM.

Regarding `Cc1c(COc2cc(OCc3cncc(C(N)=O)c3)c(CN[C@](C)(CO)C(=O)O)cc2Cl)cccc1-c1cccc(OCCCN2CCC(O)(C(=O)O)C2)c1C` (stereo partly drawn) [Example 1057, 1-(3-((3′-((5-((5-carbamoylpyridin-3-yl)methoxy)-4-((((R)-2-carboxy-1-hydroxypropan-2-yl)amino)methyl)-2-chlorophenoxy)methyl)-2,2′-dimethyl-[1,1′-biphenyl]-3-yl)oxy)propyl)-3-hydroxypyrrolidine-3-carboxylic Acid], the concentration for half-maximal inhibition (IC50) fell in the range of 0.21 to 10 nM.

The values above are taken from patent publication US10745382B2 (BRISTOL-MYERS SQUIBB COMPANY, priority 2015, dated 2020).
